Biological target: thrombin (Homo sapiens, UniProt P00734)
Assay: thrombin inhibition test, amidolytic assay with Chromozym TH
Type: biochemical
Conditions: for Inhibition (%): thrombin, substrate Chromozym TH, pH 8.0, room temperature, 15 min preincubation; for thrombin-inhibiting action of fatty acids identified in the plant drugs (in words): free fatty acids separated from hexane/isopropanol (3:2) lipid extracts by preparative thin layer chromatography
Protocol: As the testing system, an amidolytic assay with Chromozym TH (tosylglycyl-prolyl-arginine-4-nitroanilide acetate) was used as a substrate for thrombin. The principle of the test system is based on the cleavage of the substrate by thrombin, and on the release of p-nitroaniline, which absorbs at a wavelength of 405 nm. The absorption increase over time was detected photometrically. The inhibition of thrombin was calculated by a comparison between the linear initial phase of the absorption increase of the test samples containing the extract, and the blank value.
For the thrombin inhibition test, the method according to Sturzebecher was employed, with the exception of the enzyme concentration (Sturzebecher, J., Vieweg, H. (1995). Structure-Activity Relationships of Inhibitors derived from 3-Amidinophenyl-alanine. J Enzyme Inhib, 9, 87-99). • Buffer: 608 mg Tris buffer and 900 mg NaCl were dissolved in 100 ml bidistilled water. The pH value of the buffer was subsequently set to 8.0, using HCl (2 mMol) (concentrations in the sample: 0.05 mol/1 Tris HCL, 0.154 mol/1 NaCl). The substance to be examined was dissolved in ethanol (5% total volume). This was followed by filling up with buffer. • Enzyme: 1 mg/ml (=50 NIH—U/ml) thrombin was dissolved in 0.9% NaCl solution (stock solution). To prepare the sample, this solution was diluted 1:100 with a solution of 0.9% NaCL and 1% bovine serum albumin. • Substrate: 6.6 mg Chromozym TH was dissolved in 10 ml bidistilled water (concentration=1 mmol/l). • Measurement sample: 200 μl buffer/substance • 25 μl substrate • 50 μl enzyme • Conditions: Room temperature • Implementation: Buffer and enzyme are added together by pipetting and incubated for 15 min. The reaction was started by adding the substrate. • For measuring the absorption, a plate reader, iEMS Reader MF from Labsystems, was used with 96-well microtitre plates. The measurements took place at a wavelength of 405 nm, every 10 seconds, 60 measurements. Prior to start of the measurements, the microtitre plate was shaken at 600 rpm. • Evaluation: The measurements were recorded by means of iEMS Accent Software, and evaluated with Microsoft Excel 97 Software. • To calculate inhibition, the slope in the linear initial phase of the absorption increase in the samples containing the substance to be examined was compared with the slope of the absorption increase in the blank sample. For evaluation, the first 5 measured values were left out of consideration since the bubbles forming on account of the mixing can lead to problems at the beginning of the reaction. The inhibition is calculated as follows:
Inhibition=100−(slopeInhibitor/slopeBlank value*100)

SMILES	Inhibition (%) (test concentration not printed)	other results
CCCCCC[C@@H](O)C/C=C/CCCCCCCC(=O)O (stereo in doubt) [Ricinoleic acid, 12-Hydroxy-9-cis-octadecenoic acid]	43.9%	–
C=CCCCCCCCC(=O)O [9-Decenoic acid]	−3.7%	–
CCCCC/C=C\C/C=C\C/C=C\C/C=C\CCCC(=O)O [Arachidonic acid, 5-cis, 8-cis, 11-cis, 14-cis-Eicosatetraenoic acid]	75.2%	–
CC/C=C\C/C=C\C/C=C\C/C=C\C/C=C\C/C=C\CCC(=O)O [Docosahexaenoic acid, 4-cis, 7-cis, 10-cis, 13-cis, 16-cis, 19-cis-Docosahexaenoic acid]	−2.5%	–
CC/C=C\C/C=C\C/C=C\C/C=C\C/C=C\CCCC(=O)O [Eicosapentaenoic acid, 5-cis, 8-cis, 11-cis, 14-cis, 17-cis-Eicosapentaenoic acid]	−1.0%	–
CC/C=C\C/C=C\C/C=C\CCCCCCCCCC(=O)O [Eicosatrienoic acid, 11-cis, 14-cis, 17-cis-Eicosatrienoic acid]	76.0%	–
CCCCCCCC/C=C\CCCCCCCCCC(=O)O [Eicosenoic acid, 11-cis-Eicosenoic acid]	60.7%	thrombin-inhibiting action of fatty acids identified in the plant drugs (in words): identified as the thrombin-inhibiting substances
CCCCCCCC/C=C/CCCCCCCC(=O)O [Elaidinic acid, 9-trans-Octadecenoic acid]	7.4%	–
CCCCCCCC/C=C\CCCCCCCCCCCC(=O)O [Eruca acid, 13-cis-Docosaenoic acid]	7.8%	–
CCCCC/C=C\C/C=C\CCCCCCCC(=O)O [Linoleic acid, 9-cis,12-cis-Octadecadienoic acid]	71.7%	thrombin-inhibiting action of fatty acids identified in the plant drugs (in words): responsible for the thrombin-inhibiting action
CC/C=C\C/C=C\C/C=C\CCCCCCCC(=O)O [Linolenic acid, 9-cis, 12-cis, 15-cis-Octadecatrienoic acid]	75.5%	–
CCCCCCCC(=O)O [Octanoic acid]	0.7%	–
CCCCCCCC/C=C\CCCCCCCC(=O)O [Oleic acid, 9-cis-Octadecenoic acid]	65.8%	thrombin-inhibiting action of fatty acids identified in the plant drugs (in words): identified as the thrombin-inhibiting substances; Inhibition (%) (test concentration not printed, listed as oleic acid): 66%
CCCCCCCCCCCCCCCC(=O)O [Palmitic acid, Hexadecanoic acid]	1.4%	thrombin-inhibiting action of fatty acids identified in the plant drugs (in words): without effect
CC/C=C\C/C=C\C/C=C\C/C=C\CCCCC(=O)O [Stearidonic acid, 6-cis, 9-cis, 12-cis, 15-cis-Octadecatetraenoic acid]	2.4%	–
CCCCCC/C=C\CCCCCCCCCC(=O)O [Vaccenic acid, 11-cis-Octadecenoic acid]	79.9%	Inhibition (%) (test concentration not given, listed as cis-vaccenic acid): 80%
